Data set [1] concerns 157NS cells. The data set can be described thus: Photosensitivity of cancer stem cells to ALA-PDT (WST-8 cell viability). The data set is classed as cell-based, human. As to conditions: sphere type relative to non-sphere type. The method, then: (§1) Specifically, three types of brain tumor glioma stem cell lines (MD13, MD30, and 157NS cells), which had been isolated and established from brain tumor patients, were used, and an experiment was carried out to verify the photosensitivity of these cells to ALA-PDT. In preparation for the experiment, these cells were first cultured in a D-MEM/F12 culture solution containing 10% fetal calf serum (FCS) and in a D-MEM/F12 culture solution containing no FCS (containing L-glutamine, heparin, B27, EGF, and bFGF), and the shapes of the cells were then examined.
(§2) Brain tumor stem cells (MD13, MD30, and 157NS cells), which had grown to a sphere type and a non-sphere type, were treated with trypsin, and thereafter, the resulting cells were each incubated at a density of 1.0×10^6 cells/ml, together with 0.3 mM ALA, for 4 hours. Thereafter, a 405-nm laser light was applied to the cells. After the cells had been cultured for 7 days, the cell viability was measured according to a viable cell count measurement method (WST-8 assay) using water soluble tetrazolium salts as a coloring reagent.
(§3) The sphere type cells (FIG. 2B) cultured in the D-MEM/F12 culture solution containing no FCS (containing L-glutamine, heparin, B27, EGF, and bFGF) had higher sensitivity to ALA-PDT, than the non-sphere type cells (FIG. 2A) cultured in the D-MEM/F12 culture solution containing 10% FCS.
For orientation: Tetrazolium dyes change colour on reduction, which living cells bring about.

The subject of data set [2] is MD13 cells. Described as above. The data set is classed as cell-based, human. To be noted: sphere type relative to non-sphere type. The protocol: as §1, §2, §3
Data set [3] relates to MD30 cells. Described as above. The data set is classed as cell-based, human. To be noted: sphere type relative to non-sphere type. The method, then:
as §1, §2, §3

Data set [4] deals with Brain tumor stem cells (MD13, MD30, and 157NS cells). Briefly: Photosensitivity of cancer stem cells to ALA-PDT, summary over the three lines. To be noted: 0.3 mM ALA 4 hours; 405-nm laser light. The data set is classed as cell-based, human. The protocol:
as §1, §2, §3

Data set [5] relates to brain tumor cell line A172. The data set can be described thus: Photosensitivity of brain tumor cells to ALA-PDT (WST-8 cell viability). The format is cell-based. To be noted: 0.3 mM ALA 4 hours, 405-nm laser light, WST-8 after 7 days. The method, then:
(§4) The brain tumor cell line A172 (purchased from American Type Culture Collection) was cultured in a D-MEM/F12 culture solution containing no FCS (containing L-glutamine, heparin, B27, EGF, and bFGF). As a result, the cells formed a sphere similar to stem cells. […] The cells, which had grown to a sphere type and a non-sphere type, were treated with trypsin. Subsequently, the cells were each incubated at a density of 1.0×10^6 cells/ml, together with 0.3 mM ALA, for 4 hours, and thereafter, a 405-nm laser light was applied to the cells. After the cells had been further cultured for 7 days, the cell viability was measured by a WST-8 assay in the same manner as that of Example 2.

In data set [6] the test system is brain tumor cell line A172. The data set can be described thus: Photosensitivity of brain tumor cells to ALA-PDT (colony formation assay). The format is cell-based. As to conditions: 0.3 mM ALA 4 hours, 405-nm laser light, colonies after 14 days. The protocol:
as §4
Moreover, 500 cells were collected from A172 cells, on which ALA-PDT had been performed, and the cells were then seeded on a D-MEM agar medium containing 10% FCS and an antibiotic, followed by performing a culture for 14 days. Thereafter, the cultured cells were treated with Trypan blue containing 10% formalin, so that the cell colonies were immobilized and stained. The number of colonies each consisting of 50 or more cells was counted using a stereoscopic microscope.
In the aforementioned WST-8 assay, the cell viability can be measured based on a reduction reaction using mitochondrial NAD(P)H. On the other hand, in the colony formation assay, the proliferation ability of cells can be measured. […]

The subject of data set [7] is Human glioblastoma astrocytoma U87MG cells. The data set can be described thus: ALA-PDT with Lapatinib, cell viability by MTT method. The format is cell-based. As to conditions: LED 635 nm 12 J/cm^2. The protocol:
Human glioblastoma astrocytoma U87MG cells (10^6 cells) were suspended in DMEM (2% FBS), and thereafter, 10 mM ALA alone was added to the suspension, or 10 mM ALA was combined with Lapatinib in a concentration from 1 nM to 300 μM, and the combination was then added to the suspension. The obtained mixture was cultured at 37° C. for 4 hours. Thereafter, the cells were irradiated with LED having a peak at 635 nm (12 J/cm^2), and the cell viability was then measured by an MTT method. It is to be noted that the MTT method has the same measurement principle as that of the WST-8 assay, and that this is a colorimetric determination method for measuring an enzymatic activity of reducing MTT to a formazan pigment (violet).

Data set [8] deals with HeLa cells. Briefly: Multiple-dose ALA-PDT on HeLa cells and therapy-resistant HeLa cells (WST8 cell viability). The format is cell-based, human.
Procedure: HeLa cells (human-derived uterine cervix cancer cell line; 1×10^5 cells) were seeded on a 60-mm dish, and then cultured for 24 hours. Thereafter, an anticancer agent was administered to the culture solution. […] The surviving cells (5×10^3 cells) were seeded on a 96-well plate. In the present example, these cells surviving 72 hours after administration of the anticancer agent were used as therapy-resistant cancer.
Twenty-four hours after the seeding of the surviving cells on the 96-well plate, 5-aminolevulinic acid hydrochloride (ALA) was administered to the cells, and the resulting cells were then cultured for 4 hours. Thereafter, 631-nm LED light was applied to the cells to a total dose of 60 J/cm^2, one to three times. In the case of multiple-dose light irradiation, the interval between light irradiations was set at 2 hours. Twenty-four hours after the light irradiation, the resulting cells were washed with PBS twice, and the cell viability was then measured by the WST8 assay.
The longitudinal axis in each figure indicates the percentage of cell viability in the experiment groups, while the cell viability is set at 100% when the experiment was carried out under the same conditions as those described above with the exception that ALA was not administered.
The conditions of data set [9]: metabolized in a living body; cited from earlier work.
The target in data set [10] is T1, ABCG2 (Homo sapiens, UniProt Q9UNQ0).
T1 sequence (Q9UNQ0 1-655): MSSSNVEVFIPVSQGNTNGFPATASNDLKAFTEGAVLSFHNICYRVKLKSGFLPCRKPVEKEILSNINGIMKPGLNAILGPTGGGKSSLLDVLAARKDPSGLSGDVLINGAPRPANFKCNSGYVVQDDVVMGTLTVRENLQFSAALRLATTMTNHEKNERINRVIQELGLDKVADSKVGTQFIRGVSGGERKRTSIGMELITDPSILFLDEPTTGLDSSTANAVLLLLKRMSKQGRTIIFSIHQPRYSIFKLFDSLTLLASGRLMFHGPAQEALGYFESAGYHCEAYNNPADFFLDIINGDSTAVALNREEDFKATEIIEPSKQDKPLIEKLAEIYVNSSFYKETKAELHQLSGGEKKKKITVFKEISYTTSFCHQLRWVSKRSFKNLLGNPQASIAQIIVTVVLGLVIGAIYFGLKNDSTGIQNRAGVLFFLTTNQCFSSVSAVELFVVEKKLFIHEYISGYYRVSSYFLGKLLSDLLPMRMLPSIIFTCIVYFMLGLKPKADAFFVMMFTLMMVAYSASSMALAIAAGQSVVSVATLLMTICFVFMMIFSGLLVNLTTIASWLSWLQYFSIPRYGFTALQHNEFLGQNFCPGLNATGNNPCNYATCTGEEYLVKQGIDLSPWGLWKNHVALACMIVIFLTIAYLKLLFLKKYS
The data set can be described thus: Inhibition of transport function of ABCG2 (Hoechst 33342 excretion, Flp-In-293/ABCG2 cells, FACS). The format is cell-based. Set-up: expressed in transfected cells; host or cells: Flp-In-293 cells (Flp-In-293/ABCG2), with Flp-In-293/Mock as control. As to conditions: inhibitor 1 nM to 100 μM, 5 μg/mL Hoechst 33342, 90 minutes. The protocol:
In the present experiment, using Hoechst 33342 and a plurality of tyrosine kinase inhibitors, an experiment was carried out to screen for an inhibitor of ABCG2.
Specifically, using Erlotinib, Gefitinib, Lapatinib, Imatinib, Nilotinib and Dasatinib as tyrosine kinase inhibitors, and also using an L-type calcium channel inhibitor, Verapamil, as a control, screening was carried out for inhibition of the transport function of ABCG2.
Flp-In-293 cells (Flp-In-293/ABCG2 cells), which express human ABCG2, were cultured together with Hoechst 33342 as a substrate of ABCG2 and the aforementioned tyrosine kinase inhibitors for a certain period of time. Thereafter, the level of Hoechst 33342 accumulated in individual cells was measured using FACS (Beckman Coulter). […] Specific experimental procedures are as follows.
Flp-In-293/Mock and Flp-In-293/ABCG2 were each washed with PBS (phosphate buffered saline) twice, and were then peeled using Trypsin-EDTA. 10^6 cells were suspended in a DMEM medium (2% FBS). Subsequently, 5 μg/mL Hoechst 33342 (Invitrogen) alone was added to the suspension, or 5 μg/mL Hoechst 33342 was combined with various types of inhibitors in concentrations of 1 nM to 100 μM, and the combination was then added to the suspension. The obtained mixture was cultured at 37° C. for 90 minutes. After completion of the culture, the cultured cells were washed with cold PBS (2% FBS), and were then suspended again in cold PBS (2% FBS). Thereafter, intracellular fluorescence intensity was measured using FACS (Beckman Coulter). 50,000 cells were measured for a single measurement. Hoechst 33342 accumulated in the cells was excited with UV laser, the fluorescence at […] was then detected, and the mean fluorescence intensity (MFI) of the fluorescence of the measured cells was then calculated. Based on the obtained results, the inhibitory percentage against ABCG2 was calculated.
The MFI values of Flp-In-293/Mock cells and Flp-In-293/ABCG2 cells upon addition of Hoechst 33342 alone were set at 100% and 0%, respectively. […]

For data set [11], the system named is Human glioblastoma astrocytoma U87MG cells. Briefly: Intracellular accumulation of PpIX biosynthesized from ALA (FACS fluorescence). The format is cell-based. To be noted: 4 hours; for fluorescence intensity / intracellular accumulation of PpIX: 2 mM ALA with inhibitor 1 nM to 100 μM. The method, then:
Human glioblastoma astrocytoma U87MG cells were cultured together with 2 mM ALA and Lapatinib in various concentrations for 4 hours, and thereafter, the fluorescence intensity (MFI value) of PpIX, which was biosynthesized from ALA and was accumulated in the cells during the culture, was measured using FACS (Beckman Coulter). Specific experimental procedures are as follows.
U87MG cells were washed with PBS twice, and were then peeled using Trypsin-EDTA. 10^6 cells were suspended in a low-serum DMEM medium (2% FBS). Subsequently, 2 mM ALA alone was added to the suspension, or 2 mM ALA was combined with Lapatinib or Gefitinib in a concentration from 1 nM to 100 μM, and the combination was then added to the suspension. Thereafter, the obtained mixture was cultured at 37° C. for 4 hours. After completion of the culture, the cultured cells were washed with cold PBS (2% FBS), and were then suspended again in cold PBS (2% FBS). Thereafter, intracellular fluorescence intensity was measured using FACS (Beckman Coulter). 50,000 cells were measured for a single measurement. PpIX accumulated in the cells was excited with UV laser (325 nm), the fluorescence at 575 nm was then detected, and the mean fluorescence intensity (MFI) of the fluorescence of the measured cells was then calculated. Based on the obtained results, intracellular accumulation of PpIX was relatively calculated, and inhibition of the PpIX transport of ABCG2 by Lapatinib or Gefitinib was estimated.

Data set [12] addresses T1, ABCG2. To be noted: from earlier publication (Pharm Res. 26(2), 449-458, 2009); cited from earlier work.

Structures are written as SMILES. “Also recorded” adds a separate entry of the source.

As for `NCC(=O)CCC(=O)O` [ALA, 5-aminolevulinic acid], the ALA-PDT sensitivity in data set [1] was 1.8; in data set [2], 2.4; in data set [3], 1.9. In [4], the “sensitivity to ALA-PDT of sphere type cells relative to non-sphere type cells” value is recorded as 2 times. In [5], the “photosensitivity to ALA-PDT of sphere type versus non-sphere type cells (cell viability)” value is recorded as “higher photosensitivity than the non-sphere type cells”. Also, in data set [6], the “photosensitivity to ALA-PDT of sphere type versus non-sphere type cells (colony-forming ability)” value was “significantly higher photosensitivity than the non-sphere type cells”. For the same molecule, the cells died result in [7] (10 mM ALA alone 4 hours) is “approximately 50%”. For the same molecule, the “cell viability in relation to the number of light irradiations” value in data set [8] (125 to 250 μM ALA, 631-nm LED total 60 J/cm^2 in one to three irradiations) is reported as “decreased depending on the number of light irradiations”. In addition, in data set [8] (HeLa with no anticancer agent or surviving Adriamycin, Cisplatin, Etoposide or 5-Fluorouracil, 631-nm LED total 60 J/cm^2, 24 hours after), the “ALA concentration at which the cell viability was decreased” value is at least 125 µM. Further, the “time until ALA is excreted from the body” value in data set [9] was at most 48 h.

Take `C#Cc1cccc(Nc2ncnc3cc(OCCOC)c(OCCOC)cc23)c1` [Erlotinib, N-(3-ethynylphenyl)-6,7-bis(2-methoxyethoxy)-4-quinazolinamine]: the “inhibition of ABCG2 (inhibition of the excretion of Hoechst 33342), comparison among inhibitors” value (from here on “inhibition … comparison among inhibitors”) in [10] is “ABCG2-inhibitory ability almost equivalent to each other”.

For `COc1cc2ncnc(Nc3ccc(F)c(Cl)c3)c2cc1OCCCN1CCOCC1` [Gefitinib, N-(3-chloro-4-fluoro-phenyl)-7-methoxy-6-(3-morpholin-4-ylpropoxy)quinazolin-4-amine], the “fluorescence intensity / intracellular accumulation of PpIX” value in data set [11] is “intracellular accumulation of PpIX was observed, but the amount of PpIX accumulated was not as large as that in the case of inhibition by Lapatinib”. Further, the “inhibition of ABCG2” value in [12] is “effectively inhibits ABCG2”. Besides, the “inhibition … comparison among inhibitors” value in data set [10] is recorded as “ABCG2-inhibitory ability almost equivalent to each other; also recorded: weaker than that of Lapatinib”.

Turning to `CS(=O)(=O)CCNCc1ccc(-c2ccc3ncnc(Nc4ccc(OCc5cccc(F)c5)c(Cl)c4)c3c2)o1` [Lapatinib, n-[3-chloro-4-[(3-fluorophenyl)methoxy]phenyl]-6-[5-[(2-methylsulfonylethylamino)methyl]-2-furyl]quinazolin-4-amine], in data set [11], the “fluorescence intensity / intracellular accumulation of PpIX” value was “increased”. In data set [11] (2 mM ALA), the “concentration region in which ABCG2 was significantly inhibited” value is on record as at least 10 nM. Besides, the “sensitivity of the cells to LED irradiation” value in data set [7] (10 mM ALA with Lapatinib 1 nM to 300 μM) was “increased in a concentration-dependent manner”. Further, in [10], the “inhibition … comparison among inhibitors” value was “inhibits ABCG2 most strongly”.

The values above are taken from patent US20160361418A1, “COMPOSITION FOR PREVENTION OR TREATMENT OF TREATMENT-RESISTANT CANCER” (priority 2014, published 2016).
